# ChEMBL document CHEMBL1201862, “PubChem BioAssay data set” (2004)
#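 Step 1: Grow cells in 96-well plates. Step 2: Expose to compound for 48 hours at 5 concentrations. Step 3: Interpolate endpoints linearly; if unreached, use highest concentration. GI50 marks 50% less growth.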 The source made the active and inactive calls. No stated cut-off is given here; in the data, active = GI50 up to about 1.1 µM and inactive = higher.
# Legend:
# Experiment in all cases: DTP human tumour cell line panel, 48 h
# [1] = test system: MDA-MB-231
# [2] = test system: MOLT-4
# [3] = test system: SF-539
# [4] = test system: Hs-578T
# [5] = test system: U-251
# [6] = test system: OVCAR-3
# [7] = test system: HCT-15
# [8] = test system: T47D
# [9] = test system: SNB-19
# [10] = test system: SK-MEL-28
# [11] = test system: ACHN
# [12] = test system: CCRF-CEM
# [13] = test system: NCI-H23
# [14] = test system: MCF7
# [15] = test system: NCI-H522
# [16] = test system: EKVX
# [17] = test system: A498
# [18] = test system: SK-MEL-2
# [19] = test system: HCT-116
# [20] = test system: HCC 2998
# [21] = test system: MDA-N
# [22] = test system: UACC-257
# [23] = test system: SNB-75
# [24] = test system: DU-145
# [25] = test system: Malme-3M
# [26] = test system: LOX IMVI
# [27] = test system: BT-549
# [28] = test system: NCI-H460
# [29] = test system: M14
# [30] = test system: OVCAR-5
# [31] = test system: MDA-MB-435
# [32] = test system: K562
# [33] = test system: TK-10
# [34] = test system: SN12C
# [35] = test system: SR
# [36] = test system: SK-OV-3
# [37] = test system: RPMI-8226
# [38] = test system: NCI-H226
# [39] = test system: HL-60
# [40] = test system: UACC-62
# [41] = test system: RXF 393
# [42] = test system: UO-31
# [43] = test system: KM12
# [44] = test system: HOP-62
# [45] = test system: HT-29
# [46] = test system: CAKI-1
# [47] = test system: PC-3
# [48] = test system: IGROV-1
# [49] = test system: NCI/ADR-RES
# [50] = test system: COLO 205
# [51] = test system: SF-295
# [52] = test system: OVCAR-8
# [53] = test system: HOP-92
# [54] = test system: SK-MEL-5
# [55] = test system: A549
# [56] = test system: OVCAR-4
# [57] = test system: 786-0
# [58] = test system: SF-268
# [59] = test system: SW-620
smiles,measurement,setting,value
CCCOP(=O)(OCCC)OC(C(F)(F)F)C(F)(F)F,GI50,[1],> 100 µM (inactive)
same,GI50,[2],> 100 µM (inactive)
same,GI50,[3],> 100 µM (inactive)
same,GI50,[4],> 100 µM (inactive)
same,GI50,[5],> 100 µM (inactive)
same,GI50,[6],> 100 µM (inactive)
same,GI50,[7],> 100 µM
same,GI50,[8],> 100 µM (inactive)
same,GI50,[9],> 100 µM (inactive)
same,GI50,[10],> 100 µM (inactive)
same,GI50,[11],> 100 µM (inactive)
same,GI50,[12],> 100 µM (inactive)
same,GI50,[13],> 100 µM (inactive)
same,GI50,[14],> 100 µM (inactive)
same,GI50,[15],> 100 µM (inactive)
same,GI50,[16],> 100 µM (inactive)
same,GI50,[17],> 100 µM (inactive)
same,GI50,[18],> 100 µM (inactive)
same,GI50,[19],> 100 µM (inactive)
same,GI50,[20],> 100 µM (inactive)
same,GI50,[21],> 100 µM (inactive)
same,GI50,[22],> 100 µM (inactive)
same,GI50,[23],> 100 µM (inactive)
same,GI50,[24],> 100 µM (inactive)
same,GI50,[25],> 100 µM (inactive)
same,GI50,[26],> 100 µM (inactive)
same,GI50,[27],> 100 µM (inactive)
same,GI50,[28],> 100 µM (inactive)
same,GI50,[29],> 100 µM (inactive)
same,GI50,[30],> 100 µM (inactive)
same,GI50,[31],> 100 µM (inactive)
same,GI50,[32],> 100 µM (inactive)
same,GI50,[33],> 100 µM (inactive)
same,GI50,[34],> 100 µM (inactive)
same,GI50,[35],> 100 µM (inactive)
same,GI50,[36],> 100 µM (inactive)
same,GI50,[37],> 100 µM (inactive)
same,GI50,[38],> 100 µM (inactive)
same,GI50,[39],> 100 µM (inactive)
same,GI50,[40],> 100 µM (inactive)
same,GI50,[41],44.9 µM (inactive)
same,GI50,[42],> 100 µM (inactive)
same,GI50,[43],> 100 µM (inactive)
same,GI50,[44],> 100 µM (inactive)
same,GI50,[45],> 100 µM (inactive)
O=C(N/N=C(/c1ccccc1)C(F)(F)F)c1ccncc1,GI50,[2],64.3 µM (inactive)
same,GI50,[4],> 100 µM (inactive)
same,GI50,[46],> 100 µM (inactive)
same,GI50,[5],> 100 µM (inactive)
same,GI50,[6],> 100 µM (inactive)
same,GI50,[7],> 100 µM
same,GI50,[47],> 100 µM (inactive)
same,GI50,[8],> 100 µM (inactive)
same,GI50,[9],> 100 µM (inactive)
same,GI50,[10],> 100 µM (inactive)
same,GI50,[12],76 µM (inactive)
same,GI50,[48],> 100 µM (inactive)
same,GI50,[13],> 100 µM (inactive)
same,GI50,[14],> 100 µM (inactive)
same,GI50,[15],> 100 µM (inactive)
same,GI50,[49],> 100 µM (inactive)
same,GI50,[17],> 100 µM (inactive)
same,GI50,[18],> 100 µM (inactive)
same,GI50,[19],> 100 µM (inactive)
same,GI50,[20],> 100 µM (inactive)
same,GI50,[21],> 100 µM (inactive)
same,GI50,[23],> 100 µM (inactive)
same,GI50,[24],> 100 µM (inactive)
same,GI50,[50],> 100 µM (inactive)
same,GI50,[25],> 100 µM (inactive)
same,GI50,[27],> 100 µM (inactive)
same,GI50,[28],> 100 µM (inactive)
same,GI50,[29],> 100 µM (inactive)
same,GI50,[30],> 100 µM (inactive)
same,GI50,[31],> 100 µM (inactive)
same,GI50,[51],> 100 µM (inactive)
same,GI50,[32],35.1 µM (inactive)
same,GI50,[33],> 100 µM (inactive)
same,GI50,[34],> 100 µM (inactive)
same,GI50,[35],> 100 µM (inactive)
same,GI50,[36],> 100 µM (inactive)
same,GI50,[37],> 100 µM (inactive)
same,GI50,[38],> 100 µM (inactive)
same,GI50,[39],> 100 µM (inactive)
same,GI50,[52],> 100 µM (inactive)
same,GI50,[40],> 100 µM (inactive)
same,GI50,[41],0.923 µM (active)
same,GI50,[42],> 100 µM (inactive)
same,GI50,[43],> 100 µM (inactive)
same,GI50,[44],> 100 µM (inactive)
same,GI50,[53],> 100 µM (inactive)
same,GI50,[45],> 100 µM (inactive)
same,GI50,[54],> 100 µM (inactive)
Clc1cc(-c2ccccc2)nc(Nc2nc3ccccc3[nH]2)n1,GI50,[1],15 µM (inactive)
same,GI50,[2],22.3 µM (inactive)
same,GI50,[3],> 100 µM (inactive)
same,GI50,[4],27.3 µM (inactive)
same,GI50,[46],2.14 µM (inactive)
same,GI50,[55],> 100 µM (inactive)
same,GI50,[5],15.3 µM (inactive)
same,GI50,[7],6.95 µM
same,GI50,[47],44.7 µM (inactive)
same,GI50,[8],> 100 µM (inactive)
same,GI50,[56],15.9 µM (inactive)
same,GI50,[9],83 µM (inactive)
same,GI50,[11],17.5 µM (inactive)
same,GI50,[12],6.08 µM (inactive)
same,GI50,[48],14.7 µM (inactive)
same,GI50,[13],18.2 µM (inactive)
same,GI50,[57],16.5 µM (inactive)
same,GI50,[15],11.4 µM (inactive)
same,GI50,[49],43.5 µM (inactive)
same,GI50,[16],24 µM (inactive)
same,GI50,[17],33.3 µM (inactive)
same,GI50,[18],> 10 µM (inactive)
same,GI50,[19],25.1 µM (inactive)
same,GI50,[58],23.6 µM (inactive)
same,GI50,[21],18.8 µM (inactive)
same,GI50,[22],20.6 µM (inactive)
same,GI50,[23],34.4 µM (inactive)
same,GI50,[24],> 100 µM (inactive)
same,GI50,[50],13.8 µM (inactive)
same,GI50,[25],28.2 µM (inactive)
same,GI50,[59],6.01 µM (inactive)
same,GI50,[27],22.9 µM (inactive)
same,GI50,[28],19 µM (inactive)
same,GI50,[29],23.7 µM (inactive)
same,GI50,[30],> 100 µM (inactive)
same,GI50,[31],23.3 µM (inactive)
same,GI50,[51],37.1 µM (inactive)
same,GI50,[32],4.05 µM (inactive)
same,GI50,[33],> 100 µM (inactive)
same,GI50,[34],28.2 µM (inactive)
same,GI50,[35],2.84 µM (inactive)
same,GI50,[36],64.7 µM (inactive)
same,GI50,[37],> 100 µM (inactive)
same,GI50,[38],55.5 µM (inactive)
same,GI50,[39],0.832 µM (active)
same,GI50,[52],22 µM (inactive)
same,GI50,[40],17.7 µM (inactive)
same,GI50,[41],4.27 µM (inactive)
same,GI50,[42],55 µM (inactive)
same,GI50,[43],40.2 µM (inactive)
same,GI50,[53],2.2 µM (inactive)
same,GI50,[45],15 µM (inactive)
same,GI50,[54],38.5 µM (inactive)
